Values quoted from earlier work in patent publication US20220154183A1, “CHMP2A as a Regulator of Natural Killer Cell-Mediated Activity” (The Regents of the University of California, priority 2019, published 2022).

System: HNSCC
Conditions: cetuximab as monotherapy

Nivolumab
patients responding: 20%

pembrolizumab
patients responding: 20%
